The text below walks through data of patent publication US7781005B2, “Sweetener composition” (Ajinomoto Co., Inc., priority 2004, dated 2010).

Series [1] in a line: Photodecomposition of monatin in beverage model solution in PET container under D65 fluorescence lamp, HPLC. It is filed as physicochemical. As to conditions: D65 lamp 3000 lux, 165 hr. How it is done:
Temperature: 25° C. constant temperature room (forced circulation).
HPLC Analysis Conditions:
The pH of a beverage model solution, a (citric acid 2 g, sodium benzoate 0.045 g)/L solution, was adjusted with 8N sodium hydroxide. (2R, 4R)monatin potassium salt (25 mg) and various additives were dissolved in the adjusted beverage model solution (500 mL) and filled in PET containers. […] The solution was simultaneously filled in a 20 ml screw cap vial and left standing for the same time in the same constant temperature room under a light shield. These light exposure solutions and light shield solutions were subjected to HPLC analysis, and photodecomposition rates were calculated by the following formula: The photodecomposition rate (%)=(1−(mass % concentration of monatin in light exposure solution/mass % concentration of monatin in light shield solution))×100 […]

Series [2] can be described thus: Decomposition of monatin in solution by ultraviolet light (findings of the inventor). It is filed as physicochemical. As to conditions: solution state.

With `N[C@@H](Cc1c[nH]c2ccccc12)C(=O)O` [Trp, tryptophan, reference compound], the photodecomposition rate is given as 7.3% in series [1] (pH 2.8, 50 ppm); 6.0% in series [1] (pH 3.1, 50 ppm); 6.2% in series [1] (pH 3.5, 50 ppm); 5.5% in series [1] (pH 4, 50 ppm); 5.4% in series [1] (pH 4.5, 50 ppm); 12.5% in series [1] (pH 5.5, 50 ppm). In series [1] (pH 6.5, 50 ppm), this compound had a photodecomposition rate of 55.1%.
Take `N[C@@H](C[C@@](O)(Cc1c[nH]c2ccccc12)C(=O)O)C(=O)O` [monatin]: the “decomposition by ultraviolet light” value in series [2] is “tends to decompose when exposed to ultraviolet light”. The photodecomposition rate in series [1] (pH 2.8, 50 ppm) was found to be 52.5%; in series [1] (pH 3.1, 50 ppm), 45.1%; in series [1] (pH 3.5, 50 ppm), 27.6%; in series [1] (pH 4, 50 ppm) it was 15.9%; in series [1] (pH 4.5, 50 ppm) it was 10.2%; in series [1] (pH 5.5, 50 ppm), 4.8%. For the same compound, the photodecomposition rate in series [1] (pH 6.5, 50 ppm) is recorded as 4.3%.
(2R,4S)monatin: the “decomposition by ultraviolet light” value in series [2] is given as “tend to be more easily decomposed by ultraviolet light than the other isomers”.
In the case of (2S,4R)monatin, the “decomposition by ultraviolet light” value in series [2] is reported as “tend to be more easily decomposed by ultraviolet light than the other isomers”.
